Values quoted from earlier work as cited in PMC7269146, “Jingzhaotoxin-X, a gating modifier of Kv4.2 and Kv4.3 potassium channels purified from the venom of the Chinese tarantula Chilobrachys jingzhao” (The Journal of Venomous Animals and Toxins Including …, 2020).
“Also recorded” adds a separate entry of the source. Read-outs that look alike come from different tables or passages of the source.

Columns and labels:
Nav channels = settings: cited from earlier work
From the text: (§1) Table 1. Characterization of the main peptides from C. jingzhao venom | column: Main pharmacological activity

Kv channel = settings: ref [18]; cited from earlier work
From the text: as §1

calcium channel = settings: ref [35]; cited from earlier work
From the text: A total of 6 cysteine residues were highly conserved among each spider toxin at specific locations.

Nav1.5 channels = settings: cited from earlier work
From the text: as §1

rat cardiac Nav channels = settings: ref [10]; cited from earlier work
From the text: as §1

Kv2.1 channels = settings: cited from earlier work
From the text: (§2) Table 1. Characterization of the main peptides from C. jingzhao venom | column: Main pharmacological activity || The tarantula Chilobrachys jingzhao is one of the largest venomous spiders in the south of China. Peptide toxins purified from spider venom provide crucial approaches to investigating Kv4 channels. […] Jingzhaotoxin-XI ...

Kv2 channels = settings: ref [40], [41]; cited from earlier work
Kv4.3 or Kv4.2 = settings: ref [14], [19]-[21]; cited from earlier work
From the text: The tarantula Chilobrachys jingzhao is one of the largest venomous spiders in the south of China. Peptide toxins purified from spider venom provide crucial approaches to investigating Kv4 channels. […] Jingzhaotoxin-XI ...

Kv4 channels = settings: cited from earlier work
From the text: as §2

Kv4.1 channels = settings: ref [17]; cited from earlier work
From the text: as §2

## Jingzhaotoxin-IV
Nav channels; ref [13]
  Main pharmacological activity, Nav channels: Modifies the activation and inactivation of Nav channels

## Jingzhaotoxin-XIII
Kv channel
  Main pharmacological activity, Kv channel: Modifies Kv channel gating

## ω-grammotoxin SIA
Calcium channel
  activity on calcium channel: blocker of calcium channel

## Jingzhaotoxin-II
Nav1.5 channels; ref [10]
  Main pharmacological activity, Nav1.5: Inhibits inactivation of both rat cardiac Nav channels and Nav1.5 channels
Rat cardiac Nav channels
  Main pharmacological activity, rat cardiac Nav channels: Inhibits inactivation of both rat cardiac Nav channels and Nav1.5 channels

## Jingzhaotoxin-XI
Kv2.1 channels; ref [15], [16]
  Main pharmacological activity, Kv2.1: Inhibits Nav1.5 inactivation and Kv2.1 channels
Nav1.5 channels; ref [15], [16]
  Main pharmacological activity, Nav1.5: Inhibits Nav1.5 inactivation and Kv2.1 channels

## HaTx1: gating-modifying toxin (ECRYLFGGCKTTSDCCKHLGCKFRDKYCAWDFTFS; UniProt P56852 50-84, looked up)
Kv2 channels
  suppression of Kv2 channels: suppressing Kv2 channels

## Jingzhaotoxin-I
Kv2.1 channels; ref [7]-[9]
  Main pharmacological activity, Kv2.1: Inhibits Nav1.5 channels inactivation and Kv2.1 channels
Nav1.5 channels; ref [7]-[9]
  Main pharmacological activity, Nav1.5: Inhibits Nav1.5 channels inactivation and Kv2.1 channels

## SNX-482 (GVDKAGCRYMFGGCSVNDDCCPRLGCHSLFSYCAWDLTFSD; UniProt P56854 1-41, looked up)
Kv4.3 or Kv4.2
  inhibition of Kv4.3 or Kv4.2: inhibit either Kv4.3 or Kv4.2, or both of these channels

## Jingzhaotoxin-V
Kv4 channels
  Main pharmacological activity, Kv4 channels: Inhibits both Nav and Kv4 channels
Nav channels
  Main pharmacological activity, Nav channels: Inhibits both Nav and Kv4 channels
Kv4.3 or Kv4.2
  inhibition of Kv4.3 or Kv4.2: inhibit either Kv4.3 or Kv4.2, or both of these channels

## Jingzhaotoxin-III
Kv2.1 channels; ref [11], [12]
  Main pharmacological activity, Kv2.1: Inhibits Nav1.5 and Kv2.1 channels
Nav1.5 channels; ref [11], [12]
  Main pharmacological activity, Nav1.5: Inhibits Nav1.5 and Kv2.1 channels

## Jingzhaotoxin-XII
Kv4.1 channels
  Main pharmacological activity, Kv4.1: specific Kv4.1 channel-gating modifier; also recorded: Inhibits Kv4.1 channels
